Results as given in PMC10846744, “Cathelicidin peptide analogues inhibit EV71 infection through blocking viral entry and uncoating” (PLOS Pathogens, 2024).
Where no end group is shown, it is not given here.

Columns and labels:
EV71 virus [1] = assay: EV71 infection inhibition on RD cells (VP1 immunoblot, viral titer, cell viability/CPE); type: cell-based, enterovirus 71 (EV71); details: for inhibition of EV71 viral VP1 protein expression: EV71 MOI = 1 pre-incubated with peptide 1 hr at room temperature, RD cells, immunoblotting, 24 h.p.i
Description: Synthetic peptides were purchased from Bioyears Co. Ltd. (Wuhan, China) with purity of more than 95% and dissolved in PBS. To test their inhibitory effects, the EV71 virus (MOI = 1) was incubated with the indicated amount of peptide at room temperature for 1 hr before the mixture was added to RD cells and maintained throughout the experiment. Cell viability, viral titer, or viral protein expression was determined 24 h.p.i. For the time-of-addition experiment, viruses were either pre-incubated with peptides (for the -2 and -1 time points), the mixture was added to the cells simultaneously (for 0 time point), or peptides were added after virus infection (for 1, 2, 4 and 7 h time points) and the virus/peptide was maintained in the culture before cell viability, viral titer, or viral protein expression was determined 24 h.p.i. The TCID50 of the virus was calculated according to the Reed-Muench method.
Cells were treated as described and harvested with LDS sample buffer (Thermo Fisher Scientific). After denaturation, samples were separated on 10% SDS-PAGE gel and then transferred to a polyvinylidene fluoride (PVDF) membrane. The proteins were blocked using 5% skimmed milk and probed with the corresponding antibodies. The following antibodies were used in this study: EV71 VP1 polyclonal antibody (GeneTex, Taiwan, China), β-Actin antibody (Zen BioScience, Chengdu, China), pan-Enterovirus Monoclonal antibody (Thermo Fisher Scientific). The chemiluminescence signals were visualized using ECL Advance reagents (Mishubio, China), and the images were acquired using the FUSION Solo S Imaging System (VILBER, France).
Cell viability assays were carried out using the Cell Titer-Glo Luminescent Cell Viability Assay Kit (Promega, Madison, WI) following the manufacturer’s instructions. Luminescence signals were measured using a BioTek Neo2 microplate reader.
For crystal violet staining, cells treated as indicated were first washed once with PBS, followed by fixation with 4% PFA. Cells were then stained with 0.5% crystal violet for 2 hrs before they were extensively washed with water.

EV71 virus [2] = assay: Virus attachment assay (q-RT-PCR, immunoblotting); type: cell-based, enterovirus 71 (EV71); details: 1.5 μM peptide (q-RT-PCR, MOI = 1) or 3 μM (immunoblotting, MOI = 10); RD cells 4°C 1 hr
Description: Fig 3 LL-18 and FF-18 inhibit viral attachment and internalization. (A) EV71 virus (MOI = 1) was pre-incubated with 1.5 μM LL-18, FF-18 or 12 μM 12s before they were used to incubate with RD cells at 4°C for 1 hr. Viral RNA was then determined with q-RT-PCR. Values are normalized to vehicle treated cells. ***, P<0.001. (B) EV71 virus (MOI = 1) was pre-incubated with 1.5 μM LL-18, FF-18 or 12 μM 12s before they were used to incubate with RD cells at 4°C for 1 hr followed by 37°C incubation for 1 hr. Viral RNA was then determined with q-RT-PCR. Values are normalized to vehicle treated cells. ***, P<0.001. (C) Diagram of EV71 subgenomic replicon. […] (D) RD cells transfected with EV71 SGR RNA were treated with 1.5 μM LL-18 or FF-18 for 3 hrs (left panel) or 6 hrs (right panel) before luciferase activity was measured. ns, not significant.
Viral binding and internalization assays were performed as previously described. […] Cells were then washed extensively with ice-cold PBS, and the viruses retained were analyzed with real-time PCR. […]
Supplementary file ppat.1011967.s002.tif: S2 Fig LL-18 and FF-18 inhibit viral attachment and internalization. […] Cells were then washed extensively and kept cultured for 24 hrs before viral VP1 expression was determined with immunoblotting. […] Cells were then washed extensively and kept cultured for 24 hrs before viral VP1 expression was determined with immunoblotting. […]

EV71 virions [3] = assay: Viral particle ultracentrifugation (uncoating with SCARB2 at pH 5.5); design: species or system enterovirus 71 (EV71); details: EV71 MOI = 10, 1.5 μg SCARB2, pH 5.5, 37°C 2 hrs, iodoxanol gradient ultracentrifugation, immunoblotting
Description: (§1) Fig 6 LL-18 stabilizes the viral particles by inhibiting uncoating. (A) EV71 virus (MOI = 10) was pre-incubated with PBS, indicated amount of LL-18 or NaCl for 1 hr and then mixed with SYBR green dyes II before they were heated to indicated temperatures. The fluorescent signals were measured and plotted against temperature. PBS was used as a negative control. (B) EV71 virus (MOI = 10) was pre-incubated with PBS, LL-18, or 12s for 2 hrs. Half of the samples were then treated with 1.5 μg SCARB2 protein and incubated at 37°C for 2 hrs at pH 5.5. Samples were then subjected to ultracentrifugation as detailed in materials and methods. The numbers above represent the fractions collected from top to bottom.
EV71 viruses were pre-incubated with either PBS, 12s, or LL-18 for 1 hr. Then half the samples were treated with 1.5 μg purified SCARB2 protein (Sino Biological, China) with pH adjusted to 5.5. The samples were incubated at 37°C for 2 hrs to simulate the virus uncoating environment. Viral particles were then loaded onto iodoxanol gradients (0% 500 μL, 21% 1 mL, 27% 1 mL, 33% 1 mL, 39% 1 mL) and ultra-centrifuged at 4°C, 45000 rpm for 1.5 hrs. 7 fractions were collected from the top, and samples were precipitated with Trichloroacetic acid (TCA) before being analyzed with immunoblotting.

EV71 virions [4] = assay: Viral particle stability thermal release assay (PaSTRY); design: species or system enterovirus 71 (EV71); details: EV71 MOI = 10 pre-incubated with LL-18 or NaCl, SYBR green II, heated 25°C to 80°C; PBS control around 45°C
Description: as §1
EV71 viruses were preincubated with either PBS, NaCl or the indicated amount of LL-18 at room temperature for 2 hrs, before Sybr green II dye (3× working concentration, Solarbio, China) and RNase inhibitor (1 U/μL, Thermo Scientific) were added. The mixture was heated from 25°C to 80°C with an increment of 0.5°C for 30 seconds, and the fluorescence from SYBR green was monitored with a QuantGene 9600 real-time PCR system (Bioer, China).

Row | Sequence | inhibition of EV71 infection (overall conclusion) (EV71 virus [1]) | reduction of EV71 viral titer in supernatant (EV71 virus [1]) | inhibition of EV71 viral VP1 protein expression (EV71 virus [1]) | inhibition of EV71 attachment (EV71 virus [2]) | inhibition of uncoating (VP1 distribution in density gradient fractions) (EV71 virions [3]) | temperature of peak SYBR green fluorescence intensity (RNA release) (EV71 virions [4]) [°C]
1 | FRKSKEKIGKFFKRIVQRIFDFLRNLV [FF-18] | could effectively inhibit EV71 infection | reduce the viral titers dose-dependently | inhibit EV71 viral protein expression in a dose-dependent manner | could effectively inhibit EV71 attachment |  | 
2 | FRKSKEKIGKLFKRIVQRILDFLRNLV [LL-18] | could effectively inhibit EV71 infection | reduce the viral titers dose-dependently | inhibit EV71 viral protein expression in a dose-dependent manner | could effectively inhibit EV71 attachment | remained in the higher density fractions | 53
